{"source": "patent US20030104393A1", "about": "“Blood assessment of injury” (priority 2000, published 2003)", "key": {"blood cells": {"test_system": "blood cells", "experiment": "Genes induced in blood 24 hours following kainate induced seizures (Affymetrix microarray)", "type": "in vivo, rat", "details": "for Average fold induction / Minimum fold induction: rat blood 24 h after kainate induced seizures vs untouched controls", "method": "(§1) Status epilepticus is produced by intraperitoneally injecting a glutamate analogue/excitotoxin, kainic acid (10 mg/kg i.p.). Animals with kainate-induced seizures are observed following drug administration to ensure that they continue to have complex seizures over a 30 minute period.\nAll animals are allowed to survive for 24 hours following each treatment. At that time they are deeply anesthetized with ketamine (100 mg/kg) and xylazine (20 mg/kg) given intraperitoneally. Once anesthetized, the chest is opened and a direct cardiac puncture performed with a syringe and 10 cc of blood is aspirated. Immediately following removal of the blood, the animal is decapitated while deeply anesthetized and the brain removed.\nOne day after hypoxia, status epilepticus, hypoglycemia, ischemic stroke, and hemorrhagic stroke are produced in adult rats, RNA or protein is isolated from the blood cells and from the brains of the animals described in Example 1. The pattern of genes or proteins expressed in the blood cells following each of these types of injury—hypoxia, status epilepticus, hypoglycemia, ischemic stroke, and hemorrhagic stroke is captured on a commercially available microarray (Affymetrix chip). The pattern of gene or protein expression is defined using an expression method, which then forms a genomic or proteomic organ injury database, which is used in assessing injury.\nFor the tables of genes induced in the blood, the genome expression of blood in the hypoxic animals (3 animals) was compared to the genome expression of blood in untouched control animals (3 animals). The genome expression of blood in the animals with status epilepticus (3 animals) was compared to the genome expression of blood in the untouched control animals (3 animals). The genome expression of blood in the animals with stroke (3 animals) was compared to the genome expression of blood in the sham operated control animals (3 animals). In each case the accession number of the gene and the fold change in gene expression is given—with a maximum estimate and a minimum estimate.\nTable 2 sets forth genes induced in the blood of rats 24 hours following kainate induced seizures (n=3 rats) as compared with genes expressed in the blood of untouched control rats (n=3 rats). The accession number of the gene is given, the name of the gene is given where known, the average fold induction is given, as well as the minimum fold induction is given for each gene. A number of the genes are ESTs that have not yet been subjected to a BLAST search. This list was shortened to show only those genes induced at least 2.8 fold. Over 100 genes were induced following kainate on arrays that contained over 8000 genes."}, "neurons": {"test_system": "neurons", "experiment": "Status epilepticus produced by kainic acid: neuronal injury", "type": "in vivo, rat", "details": "kainic acid 10 mg/kg i.p., 24 hours later", "method": "as §1"}, "[1]": {"details": "gene AF027571_s_at phospholipase C-beta 4 isoform (PLC-b4)"}, "[2]": {"details": "gene AF091563_i_at isolate QIL-LD1 olfactory receptor"}, "[3]": {"details": "gene AF102552_s_at ankyrin G isoform"}, "[4]": {"details": "gene D84485_at PMSG-induced ovarian mRNA"}, "[5]": {"details": "gene L42855_at RNA polymerase II transcription factor SIII p18 subunit"}, "[6]": {"details": "gene L81136cds_f_at Rps2r1 preliminary DNA"}, "[7]": {"details": "gene M96159_at adenylyl cyclase type V"}, "[8]": {"details": "gene S54212_at ciliary neurotrophic factor receptor alpha"}, "[9]": {"details": "gene U66566_at receptor type protein tyrosine phophatase psi"}, "[10]": {"details": "gene X06827_at porphobilinogen deaminase"}, "[11]": {"details": "gene Z28351exon_s_at 25-hydroxyvitamin D3 24-hydroxylase"}}, "data": [{"smiles": "C=C(C)[C@H]1CN[C@H](C(=O)O)[C@H]1CC(=O)O", "note": "[kainate, kainic acid]", "values": [{"measurement": "Average fold induction", "setting": "blood cells; [1]", "value": 4.15, "unit": "fold"}, {"measurement": "Minimum fold induction", "setting": "blood cells; [1]", "value": 2.5, "unit": "fold"}, {"measurement": "Average fold induction", "setting": "blood cells; gene AF045464_s_at", "value": 6.5, "unit": "fold"}, {"measurement": "Minimum fold induction", "setting": "blood cells; gene AF045464_s_at", "value": 2.5, "unit": "fold"}, {"measurement": "Average fold induction", "setting": "blood cells; gene AF079162_at patched (ptc)", "value": 5.4, "unit": "fold"}, {"measurement": "Minimum fold induction", "setting": "blood cells; gene AF079162_at patched (ptc)", "value": 3.2, "unit": "fold"}, {"measurement": "Average fold induction", "setting": "blood cells; [2]", "value": 3.4, "unit": "fold"}, {"measurement": "Minimum fold induction", "setting": "blood cells; [2]", "value": 2.4, "unit": "fold"}, {"measurement": "Average fold induction", "setting": "blood cells; [3]", "value": 4.6, "unit": "fold"}, {"measurement": "Minimum fold induction", "setting": "blood cells; [3]", "value": 2.4, "unit": "fold"}, {"measurement": "Average fold induction", "setting": "blood cells; [4]", "value": 11.4, "unit": "fold"}, {"measurement": "Minimum fold induction", "setting": "blood cells; [4]", "value": 3.1, "unit": "fold"}, {"measurement": "Average fold induction", "setting": "blood cells; gene D89863_g_at (M-ras) M-Ras", "value": 5.6, "unit": "fold"}, {"measurement": "Minimum fold induction", "setting": "blood cells; gene D89863_g_at (M-ras) M-Ras", "value": 2.3, "unit": "fold"}, {"measurement": "Average fold induction", "setting": "blood cells; [5]", "value": 4.32, "unit": "fold"}, {"measurement": "Minimum fold induction", "setting": "blood cells; [5]", "value": 3.4, "unit": "fold"}, {"measurement": "Average fold induction", "setting": "blood cells; [6]", "value": 3.9, "unit": "fold"}, {"measurement": "Minimum fold induction", "setting": "blood cells; [6]", "value": 2.7, "unit": "fold"}, {"measurement": "Average fold induction", "setting": "blood cells; gene L81138exon Rps2r gene", "value": 5.5, "unit": "fold"}, {"measurement": "Minimum fold induction", "setting": "blood cells; gene L81138exon Rps2r gene", "value": 2.3, "unit": "fold"}, {"measurement": "Average fold induction", "setting": "blood cells; gene M91234_f_at VL30 element", "value": 4.4, "unit": "fold"}, {"measurement": "Minimum fold induction", "setting": "blood cells; gene M91234_f_at VL30 element", "value": 2.5, "unit": "fold"}, {"measurement": "Average fold induction", "setting": "blood cells; gene M91235_f_at VL30 element", "value": 3.9, "unit": "fold"}, {"measurement": "Minimum fold induction", "setting": "blood cells; gene M91235_f_at VL30 element", "value": 3, "unit": "fold"}, {"measurement": "Average fold induction", "setting": "blood cells; [7]", "value": 10, "unit": "fold"}, {"measurement": "Minimum fold induction", "setting": "blood cells; [7]", "value": 2.9, "unit": "fold"}, {"measurement": "Average fold induction", "setting": "blood cells; gene Rc_AA799614_at", "value": 4.7, "unit": "fold"}, {"measurement": "Minimum fold induction", "setting": "blood cells; gene Rc_AA799614_at", "value": 2.5, "unit": "fold"}, {"measurement": "Average fold induction", "setting": "blood cells; gene Rc_AA852046_s_at", "value": 4.3, "unit": "fold"}, {"measurement": "Minimum fold induction", "setting": "blood cells; gene Rc_AA852046_s_at", "value": 2.5, "unit": "fold"}, {"measurement": "Average fold induction", "setting": "blood cells; gene Rc_AA891828_at", "value": 4, "unit": "fold"}, {"measurement": "Minimum fold induction", "setting": "blood cells; gene Rc_AA891828_at", "value": 2.6, "unit": "fold"}, {"measurement": "Average fold induction", "setting": "blood cells; gene Rc_AA894273_at", "value": 5.2, "unit": "fold"}, {"measurement": "Minimum fold induction", "setting": "blood cells; gene Rc_AA894273_at", "value": 2.8, "unit": "fold"}, {"measurement": "Average fold induction", "setting": "blood cells; gene Rc_AA925529_at", "value": 4, "unit": "fold"}, {"measurement": "Minimum fold induction", "setting": "blood cells; gene Rc_AA925529_at", "value": 3, "unit": "fold"}, {"measurement": "Average fold induction", "setting": "blood cells; gene Rc_AA955182_g_at", "value": 9, "unit": "fold"}, {"measurement": "Minimum fold induction", "setting": "blood cells; gene Rc_AA955182_g_at", "value": 2.3, "unit": "fold"}, {"measurement": "Average fold induction", "setting": "blood cells; gene Rc_AI104924_f_at", "value": 4.1, "unit": "fold"}, {"measurement": "Minimum fold induction", "setting": "blood cells; gene Rc_AI104924_f_at", "value": 3.3, "unit": "fold"}, {"measurement": "Average fold induction", "setting": "blood cells; [8]", "value": 2.8, "unit": "fold"}, {"measurement": "Minimum fold induction", "setting": "blood cells; [8]", "value": 2.6, "unit": "fold"}, {"measurement": "Average fold induction", "setting": "blood cells; [9]", "value": 5.5, "unit": "fold"}, {"measurement": "Minimum fold induction", "setting": "blood cells; [9]", "value": 4.3, "unit": "fold"}, {"measurement": "Average fold induction", "setting": "blood cells; gene U73030_at", "value": 4.1, "unit": "fold"}, {"measurement": "Minimum fold induction", "setting": "blood cells; gene U73030_at", "value": 2.4, "unit": "fold"}, {"measurement": "Average fold induction", "setting": "blood cells; [10]", "value": 3.6, "unit": "fold"}, {"measurement": "Minimum fold induction", "setting": "blood cells; [10]", "value": 3, "unit": "fold"}, {"measurement": "Average fold induction", "setting": "blood cells; gene X60675_at interleukin 10", "value": 3.6, "unit": "fold"}, {"measurement": "Minimum fold induction", "setting": "blood cells; gene X60675_at interleukin 10", "value": 2.3, "unit": "fold"}, {"measurement": "Average fold induction", "setting": "blood cells; gene X76697_at B7 antigen", "value": 5.7, "unit": "fold"}, {"measurement": "Minimum fold induction", "setting": "blood cells; gene X76697_at B7 antigen", "value": 2.5, "unit": "fold"}, {"measurement": "Average fold induction", "setting": "blood cells; [11]", "value": 3.5, "unit": "fold"}, {"measurement": "Minimum fold induction", "setting": "blood cells; [11]", "value": 2.3, "unit": "fold"}, {"measurement": "Average fold induction", "setting": "blood cells; gene rc_AI102562_at", "value": 3, "unit": "fold"}, {"measurement": "Minimum fold induction", "setting": "blood cells; gene rc_AI102562_at", "value": 2.4, "unit": "fold"}, {"measurement": "Number of genes induced following kainate", "setting": "blood cells; rat blood, arrays that contained over 8000 genes", "value": "Over 100 genes"}, {"measurement": "Neuronal injury", "setting": "neurons", "value": "diffuse neuronal injury"}]}]}
